In PubChem BioAssay AID248 (DTP/NCI, 2004):
Where “and” joins values, the source holds several entries; their conditions need not be identical. Identical values can stand only once. Inconclusive results and toxic doses are left out. Rule as the data show it: active = T/C of 150% or more; inactive = T/C below 125%.

Tested on: L1210 leukemia ip in BDF1 mice, survival T/C
Assay: NCI In Vivo Anticancer Drug Screen. Data for tumor model L1210 Leukemia (intraperitoneal) in B6D2F1 (BDF1) mice
Settings: endpoint: mean survival time, higher = longer survival
Summary of the method: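 In this screen, tumor-bearing mice given compound are compared to those given vehicle, and their survival values are reported as a treated-to-control quotient.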

[1] = dose: 100.0 mg/kg/injection, schedule: Q04DX003 (ip), vehicle: saline with Tween-80
[2] = dose: 200.0 mg/kg/injection, schedule: Q04DX003 (ip), vehicle: saline with Tween-80
[3] = dose: 400.0 mg/kg/injection, schedule: Q04DX003 (ip), vehicle: saline with Tween-80
[4] = dose: 100.0 mg/kg/injection, schedule: Q04DX003 (ip), vehicle: Klucel (hydroxypropylcellulose) (HPC)
[5] = dose: 200.0 mg/kg/injection, schedule: Q04DX003 (ip), vehicle: Klucel (hydroxypropylcellulose) (HPC)
[6] = dose: 400.0 mg/kg/injection, schedule: Q04DX003 (ip), vehicle: Klucel (hydroxypropylcellulose) (HPC)
[7] = dose: 100.0 mg/kg/injection, schedule: Q01DX009 (ip), vehicle: Klucel (hydroxypropylcellulose) (HPC)
[8] = dose: 200.0 mg/kg/injection, schedule: Q01DX009 (ip), vehicle: Klucel (hydroxypropylcellulose) (HPC)
[9] = dose: 400.0 mg/kg/injection, schedule: Q01DX009 (ip), vehicle: Klucel (hydroxypropylcellulose) (HPC)
[10] = dose: 100.0 mg/kg/injection, schedule: Q01DX001 (ip), vehicle: saline
[11] = dose: 200.0 mg/kg/injection, schedule: Q01DX001 (ip), vehicle: saline
[12] = dose: 100.0 mg/kg/injection, schedule: Q04DX002 (ip), vehicle: Klucel (hydroxypropylcellulose) (HPC)
[13] = dose: 200.0 mg/kg/injection, schedule: Q04DX002 (ip), vehicle: Klucel (hydroxypropylcellulose) (HPC)
[14] = dose: 400.0 mg/kg/injection, schedule: Q04DX002 (ip), vehicle: Klucel (hydroxypropylcellulose) (HPC)
[15] = dose: 100.0 mg/kg/injection, schedule: Q04DX003 (ip), vehicle: saline
[16] = dose: 200.0 mg/kg/injection, schedule: Q04DX003 (ip), vehicle: saline
[17] = dose: 400.0 mg/kg/injection, schedule: Q01DX001 (ip), vehicle: saline
[18] = dose: 100.0 mg/kg/injection, schedule: Q01DX009 (ip), vehicle: saline with Tween-80

Measured: T/C

C(=Nc1ccccc1)c1ccc[nH]1
inactive: [1] 100 % of control | [2] 93 % of control | [3] 96 % of control

CC(=O)OC1CC2(O)C(CCC3(C)C(c4ccc(=O)oc4)CCC32O)C2(C)C1=CC(O)C1OC12 (configuration not stated)
inactive: dose: 0.06 mg/kg/injection, schedule: Q01DX001 (sc), vehicle: steriod suspending solution 105 % of control | dose: 0.13 mg/kg/injection, schedule: Q01DX001 (sc), vehicle: steriod suspending solution 103 % of control | dose: 0.25 mg/kg/injection, schedule: Q01DX001 (sc), vehicle: steriod suspending solution 105 % of control | dose: 0.5 mg/kg/injection, schedule: Q01DX001 (sc), vehicle: steriod suspending solution 100 % of control and 102 % of control | dose: 1.0 mg/kg/injection, schedule: Q01DX001 (sc), vehicle: steriod suspending solution 96 % of control | dose: 2.0 mg/kg/injection, schedule: Q01DX001 (sc), vehicle: steriod suspending solution 104 % of control

CC(C)C(COC(=O)c1ccc(N)cc1)NC1CCCCC1C (configuration not stated)
inactive: dose: 75.0 mg/kg/injection, schedule: Q01DX001 (ip), vehicle: carboxymethylcellulose (CMC) 97 % of control | dose: 150.0 mg/kg/injection, schedule: Q01DX001 (ip), vehicle: carboxymethylcellulose (CMC) 95 % of control | dose: 300.0 mg/kg/injection, schedule: Q01DX001 (ip), vehicle: carboxymethylcellulose (CMC) 89 % of control

COc1nc(Cl)cc2c1ncn2C1OC(CO)C(O)C1O (configuration not stated)
inactive: dose: 100.0 mg/kg/injection, schedule: Q01DX005 (ip), vehicle: saline 111 % of control | dose: 200.0 mg/kg/injection, schedule: Q01DX005 (ip), vehicle: saline 108 % of control

COc1cc(C=O)cc(OC)c1OC
inactive: [4] 93 % of control | [5] 93 % of control | [6] 87 % of control

CCCCCCC(=O)C(C)C
inactive: [7] 93 % of control | [4] 89 % of control | [8] 96 % of control | [5] 88 % of control | [9] 106 % of control | [6] 98 % of control

CN(C)C(=S)SN(C)C(=O)Nc1ccccc1
inactive: [4] 105 % of control | [5] 109 % of control | [6] 107 % of control

COc1ccc(OC)c(NC(=O)Nc2cccc(C(C)=O)c2)c1
inactive: [7] 96 % of control | [8] 106 % of control | [9] 102 % of control

O=c1ccnc(SCc2ccccc2Cl)[nH]1
inactive: dose: 100.0 mg/kg/injection, schedule: Q01DX Z (ip), vehicle: methylcellulose (MC) 91 % of control | dose: 200.0 mg/kg/injection, schedule: Q01DX Z (ip), vehicle: methylcellulose (MC) 91 % of control

Cc1ccc2[nH]c(O)c(N=Nc3ccccc3[N+](=O)[O-])c2c1
inactive: [10] 90 % of control | [11] 93 % of control

CC(C)CCOC(=O)C(O)C(C)(Cl)c1ccccc1 (configuration not stated)
inactive: [12] 111 % of control | [13] 91 % of control | [14] 100 % of control

O=C(O)c1ccc2ccc3cccnc3c2n1
inactive: [1] 96 % of control | [2] 113 % of control

NS(=O)(=O)c1ccc(C(=O)NO)cc1
inactive: [15] 100 % of control | [16] 110 % of control | dose: 400.0 mg/kg/injection, schedule: Q04DX003 (ip), vehicle: saline 102 % of control

O=C(Nc1ccc([N+](=O)[O-])cc1Cl)SCc1ccccc1
inactive: dose: 100.0 mg/kg/injection, schedule: Q01DX001 (ip), vehicle: Klucel (hydroxypropylcellulose) (HPC) 96 % of control | [7] 94 % of control and 101 % of control | [12] 95 % of control and 105 % of control | [4] 92 % of control | dose: 200.0 mg/kg/injection, schedule: Q01DX001 (ip), vehicle: Klucel (hydroxypropylcellulose) (HPC) 96 % of control | [8] 97 % of control and 106 % of control | [13] 103 % of control and 105 % of control | [5] 95 % of control | dose: 400.0 mg/kg/injection, schedule: Q01DX001 (ip), vehicle: Klucel (hydroxypropylcellulose) (HPC) 96 % of control | [14] 94 % of control and 95 % of control | [6] 92 % of control

C=C(S(=O)(=O)c1ccccc1)S(=O)(=O)c1ccccc1 (tested in a mixture with another compound)
inactive: dose: 10.0 mg/kg/injection, schedule: Q04DX002 (ip), vehicle: Klucel (hydroxypropylcellulose) (HPC) 117 % of control | dose: 20.0 mg/kg/injection, schedule: Q04DX002 (ip), vehicle: Klucel (hydroxypropylcellulose) (HPC) 102 % of control | dose: 40.0 mg/kg/injection, schedule: Q04DX002 (ip), vehicle: Klucel (hydroxypropylcellulose) (HPC) 91 % of control | [13] 86 % of control

CC(C)Sc1nn2nnnc2c2ccccc12
inactive: dose: 50.0 mg/kg/injection, schedule: Q04DX003 (ip), vehicle: saline 94 % of control | [15] 97 % of control | [16] 103 % of control

O=c1[nH]cncc1F
inactive: dose: 264.0 mg/kg/injection, schedule: Q01DX001 (ip), vehicle: saline 92 % of control | [17] 100 % of control and 112 % of control

NC(N)=NC1CCCCC1
inactive: [15] 102 % of control | [16] 112 % of control

c1ccc(C2SC(c3ccccc3)SC(c3ccccc3)S2)cc1 (configuration not stated)
inactive: [10] 90 % of control | [11] 88 % of control | [17] 92 % of control

COc1nc(N)c(C#N)c(C#N)c1C#N
inactive: dose: 15.0 mg/kg/injection, schedule: Q01DX001 (ip), vehicle: carboxymethylcellulose (CMC) 95 % of control | dose: 30.0 mg/kg/injection, schedule: Q01DX001 (ip), vehicle: carboxymethylcellulose (CMC) 95 % of control

COc1cc(CC#N)cc(OC)c1
inactive: dose: 50.0 mg/kg/injection, schedule: Q01DX009 (ip), vehicle: saline with Tween-80 102 % of control | [18] 88 % of control

CCCCCCCCCCCCCCCCCC(=O)OCCCCCCCCCCCCC
inactive: dose: 100.0 mg/kg/injection, schedule: Q01DX009 (ip), vehicle: saline sonified 88 % of control | [1] 100 % of control | dose: 200.0 mg/kg/injection, schedule: Q01DX009 (ip), vehicle: saline sonified 95 % of control | [2] 92 % of control | dose: 400.0 mg/kg/injection, schedule: Q01DX009 (ip), vehicle: saline sonified 91 % of control | [3] 86 % of control

Cc1ccc(S(=O)(=O)OCC(=O)O)cc1
inactive: [1] 95 % of control | [2] 95 % of control | [3] 100 % of control

COc1ccc(/C=N/NC(=O)c2ccccc2N)cc1
inactive: [12] 98 % of control | [13] 106 % of control | [14] 106 % of control

CC1CN1P(=O)(N1CC=CCC1)N1CC1C (configuration not stated)
inactive: dose: 50.0 mg/kg/injection, schedule: Q01DX001 (ip), vehicle: saline 109 % of control | [10] 120 % of control | [11] 101 % of control | [17] 91 % of control

O=C(O)CCC(Nc1sc([N+](=O)[O-])cc1[N+](=O)[O-])C(=O)O (configuration not stated)
inactive: dose: 100.0 mg/kg/injection, schedule: Q04DX002 (ip), vehicle: saline with Tween-80 95 % of control | dose: 200.0 mg/kg/injection, schedule: Q04DX002 (ip), vehicle: saline with Tween-80 106 % of control | dose: 400.0 mg/kg/injection, schedule: Q04DX002 (ip), vehicle: saline with Tween-80 92 % of control

O=S(=O)(Nc1ccc(NS(=O)(=O)c2ccccc2)c2ccccc12)c1ccccc1
inactive: [18] 87 % of control | dose: 200.0 mg/kg/injection, schedule: Q01DX009 (ip), vehicle: saline with Tween-80 92 % of control | dose: 400.0 mg/kg/injection, schedule: Q01DX009 (ip), vehicle: saline with Tween-80 92 % of control
